PubChem BioAssay (NCI)
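Results reflect a 48-hour exposure of cells in 96-well plates to compound at five concentrations. TGI marks complete inhibition of growth.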

Experiments:
Assay in all cases: NCI-60 cell line screen, 48 h
ACHN renal = system: ACHN renal
OVCAR-8 ovarian = system: OVCAR-8 ovarian
HT29 colon = system: HT29 colon
UO-31 renal = system: UO-31 renal
SK-MEL-2 melanoma = system: SK-MEL-2 melanoma
CAKI-1 renal = system: CAKI-1 renal
SF-539 CNS = system: SF-539 CNS
HCC-2998 colon = system: HCC-2998 colon
EKVX NSCLC = system: EKVX NSCLC
MDA-N = system: MDA-N
UACC-62 melanoma = system: UACC-62 melanoma
NCI-H226 lung = system: NCI-H226 lung
T-47D breast = system: T-47D breast
NCI-H460 lung = system: NCI-H460 lung
A549 NSCLC = system: A549 NSCLC
U251 CNS = system: U251 CNS
SW-620 colon = system: SW-620 colon
SNB-19 CNS = system: SNB-19 CNS
HCT-15 colon = system: HCT-15 colon
MOLT-4 leukemia = system: MOLT-4 leukemia
SK-MEL-5 melanoma = system: SK-MEL-5 melanoma
KM12 colon = system: KM12 colon
HCT-116 colon = system: HCT-116 colon
NCI/ADR-RES ovarian = system: NCI/ADR-RES ovarian
SF-268 CNS = system: SF-268 CNS
MDA-MB-231 breast = system: MDA-MB-231 breast
SK-OV-3 ovarian = system: SK-OV-3 ovarian
DU-145 prostate = system: DU-145 prostate
A498 renal = system: A498 renal
PC-3 prostate = system: PC-3 prostate
MALME-3M melanoma = system: MALME-3M melanoma
RXF 393 renal = system: RXF 393 renal
RPMI-8226 leukemia = system: RPMI-8226 leukemia
MDA-MB-435 = system: MDA-MB-435
CCRF-CEM leukemia = system: CCRF-CEM leukemia
COLO 205 colon = system: COLO 205 colon
SK-MEL-28 melanoma = system: SK-MEL-28 melanoma
K-562 leukemia = system: K-562 leukemia
HOP-92 NSCLC = system: HOP-92 NSCLC
786-0 renal = system: 786-0 renal
NCI-H23 lung = system: NCI-H23 lung
SNB-75 CNS = system: SNB-75 CNS
SN12C renal = system: SN12C renal
BT-549 breast = system: BT-549 breast
HL-60(TB) leukemia = system: HL-60(TB) leukemia
LOX IMVI melanoma = system: LOX IMVI melanoma
MCF7 breast = system: MCF7 breast
UACC-257 melanoma = system: UACC-257 melanoma
SF-295 CNS = system: SF-295 CNS
HS 578T breast = system: HS 578T breast
TK-10 renal = system: TK-10 renal
OVCAR-4 ovarian = system: OVCAR-4 ovarian
NCI-H522 lung = system: NCI-H522 lung
SR leukemia = system: SR leukemia
HOP-62 NSCLC = system: HOP-62 NSCLC
OVCAR-5 ovarian = system: OVCAR-5 ovarian
M14 melanoma = system: M14 melanoma
OVCAR-3 ovarian = system: OVCAR-3 ovarian
IGROV1 ovarian = system: IGROV1 ovarian

How did the TGI (ACHN renal) turn out when `O=C(OCC1CCCN2CCCCC12)c1cccnc1` (centres undefined) was run?
The TGI was over 100 µM.

And the TGI (OVCAR-8 ovarian)?
Its TGI is over 100 µM.

And the TGI (HT29 colon)?
The TGI was over 100 µM.

And the TGI (UO-31 renal)?
Its TGI is over 100 µM.

And the TGI (SK-MEL-2 melanoma)?
Its TGI is over 100 µM.

And the TGI (CAKI-1 renal)?
Its TGI is over 100 µM.

And the TGI (SF-539 CNS)?
The TGI was over 100 µM.

And the TGI (HCC-2998 colon)?
Its TGI is over 100 µM.

What about the TGI (EKVX NSCLC) of the same compound?
The TGI was over 100 µM.

And the TGI (MDA-N)?
Its TGI is over 100 µM.

What about the TGI (UACC-62 melanoma) of the same compound?
The TGI was over 100 µM.

And the TGI (NCI-H226 lung)?
The TGI was over 100 µM.

What about the TGI (T-47D breast) of the same compound?
The TGI was over 100 µM.

What about the TGI (NCI-H460 lung) of the same compound?
The TGI was over 100 µM.

And the TGI (A549 NSCLC)?
Its TGI is over 100 µM.

And the TGI (U251 CNS)?
The TGI was over 100 µM.

And the TGI (SW-620 colon)?
The TGI was over 100 µM.

What about the TGI (SNB-19 CNS) of the same compound?
Its TGI is over 100 µM.

And the TGI (HCT-15 colon)?
Its TGI is over 100 µM.

And the TGI (MOLT-4 leukemia)?
Its TGI is over 100 µM.

What about the TGI (SK-MEL-5 melanoma) of the same compound?
Its TGI is over 100 µM.

What about the TGI (KM12 colon) of the same compound?
The TGI was over 100 µM.

And the TGI (HCT-116 colon)?
The TGI was over 100 µM.

What about the TGI (NCI/ADR-RES ovarian) of the same compound?
Its TGI is over 100 µM.

And the TGI (SF-268 CNS)?
The TGI was over 100 µM.

What about the TGI (MDA-MB-231 breast) of the same compound?
Its TGI is over 100 µM.

What about the TGI (SK-OV-3 ovarian) of the same compound?
The TGI was over 100 µM.

What about the TGI (DU-145 prostate) of the same compound?
Its TGI is over 100 µM.

What about the TGI (A498 renal) of the same compound?
Its TGI is over 100 µM.

What about the TGI (PC-3 prostate) of the same compound?
The TGI was over 100 µM.

And the TGI (MALME-3M melanoma)?
The TGI was over 100 µM.

What about the TGI (RXF 393 renal) of the same compound?
The TGI was over 100 µM.

What about the TGI (RPMI-8226 leukemia) of the same compound?
The TGI was over 100 µM.

And the TGI (MDA-MB-435)?
Its TGI is over 100 µM.

And the TGI (CCRF-CEM leukemia)?
Its TGI is over 100 µM.

And the TGI (COLO 205 colon)?
The TGI was over 100 µM.

And the TGI (SK-MEL-28 melanoma)?
Its TGI is over 100 µM.

What about the TGI (K-562 leukemia) of the same compound?
Its TGI is over 100 µM.

And the TGI (HOP-92 NSCLC)?
Its TGI is over 100 µM.

What about the TGI (786-0 renal) of the same compound?
Its TGI is over 100 µM.

What about the TGI (NCI-H23 lung) of the same compound?
The TGI was over 100 µM.

And the TGI (SNB-75 CNS)?
The TGI was over 100 µM.

What about the TGI (SN12C renal) of the same compound?
The TGI was over 100 µM.

And the TGI (BT-549 breast)?
The TGI was over 100 µM.

And the TGI (HL-60(TB) leukemia)?
The TGI was over 100 µM.

What about the TGI (LOX IMVI melanoma) of the same compound?
The TGI was over 100 µM.

What about the TGI (MCF7 breast) of the same compound?
Its TGI is over 100 µM.

What about the TGI (UACC-257 melanoma) of the same compound?
Its TGI is over 100 µM.

What about the TGI (SF-295 CNS) of the same compound?
Its TGI is over 100 µM.

And the TGI (HS 578T breast)?
The TGI was over 100 µM.

What about the TGI (TK-10 renal) of the same compound?
The TGI was over 100 µM.

What about the TGI (OVCAR-4 ovarian) of the same compound?
Its TGI is over 100 µM.

For `N#C/C(=C/n1c(=S)[nH]c2ccccc21)C(N)=O`, which TGI (NCI-H522 lung) is on record?
The TGI was over 100 µM.

What about the TGI (ACHN renal) of the same compound?
Its TGI is over 100 µM.

What about the TGI (OVCAR-8 ovarian) of the same compound?
The TGI was over 100 µM.

What about the TGI (HT29 colon) of the same compound?
Its TGI is over 100 µM.

And the TGI (UO-31 renal)?
Its TGI is over 100 µM.

What about the TGI (SK-MEL-2 melanoma) of the same compound?
The TGI was over 100 µM.

And the TGI (CAKI-1 renal)?
The TGI was over 100 µM.

What about the TGI (SF-539 CNS) of the same compound?
Its TGI is over 100 µM.

And the TGI (HCC-2998 colon)?
The TGI was over 100 µM.

And the TGI (EKVX NSCLC)?
The TGI was over 100 µM.

What about the TGI (MDA-N) of the same compound?
Its TGI is over 100 µM.

And the TGI (UACC-62 melanoma)?
Its TGI is over 100 µM.

What about the TGI (NCI-H226 lung) of the same compound?
Its TGI is over 100 µM.

What about the TGI (T-47D breast) of the same compound?
The TGI was over 100 µM.

What about the TGI (NCI-H460 lung) of the same compound?
Its TGI is over 100 µM.

And the TGI (A549 NSCLC)?
Its TGI is over 100 µM.

What about the TGI (U251 CNS) of the same compound?
The TGI was over 100 µM.

And the TGI (SR leukemia)?
Its TGI is over 100 µM.

And the TGI (SW-620 colon)?
Its TGI is over 100 µM.

And the TGI (SNB-19 CNS)?
The TGI was over 100 µM.

What about the TGI (HCT-15 colon) of the same compound?
The TGI was over 100 µM.

What about the TGI (MOLT-4 leukemia) of the same compound?
The TGI was over 100 µM.

What about the TGI (SK-MEL-5 melanoma) of the same compound?
Its TGI is over 100 µM.

And the TGI (KM12 colon)?
The TGI was over 100 µM.

What about the TGI (HCT-116 colon) of the same compound?
The TGI was over 100 µM.

And the TGI (NCI/ADR-RES ovarian)?
Its TGI is over 100 µM.

What about the TGI (SF-268 CNS) of the same compound?
The TGI was over 100 µM.

What about the TGI (MDA-MB-231 breast) of the same compound?
Its TGI is over 100 µM.

And the TGI (SK-OV-3 ovarian)?
The TGI was over 100 µM.

What about the TGI (DU-145 prostate) of the same compound?
The TGI was over 100 µM.

And the TGI (A498 renal)?
The TGI was over 100 µM.

And the TGI (PC-3 prostate)?
Its TGI is over 100 µM.

What about the TGI (MALME-3M melanoma) of the same compound?
The TGI was over 100 µM.

And the TGI (RXF 393 renal)?
Its TGI is over 100 µM.

And the TGI (RPMI-8226 leukemia)?
Its TGI is over 100 µM.

And the TGI (MDA-MB-435)?
Its TGI is over 100 µM.

What about the TGI (CCRF-CEM leukemia) of the same compound?
The TGI was over 100 µM.

And the TGI (COLO 205 colon)?
Its TGI is over 100 µM.

And the TGI (SK-MEL-28 melanoma)?
Its TGI is over 100 µM.

What about the TGI (K-562 leukemia) of the same compound?
The TGI was over 100 µM.

And the TGI (HOP-92 NSCLC)?
Its TGI is over 100 µM.

What about the TGI (786-0 renal) of the same compound?
Its TGI is over 100 µM.

What about the TGI (HOP-62 NSCLC) of the same compound?
The TGI was over 100 µM.

What about the TGI (NCI-H23 lung) of the same compound?
Its TGI is over 100 µM.

And the TGI (SNB-75 CNS)?
The TGI was over 100 µM.

What about the TGI (SN12C renal) of the same compound?
The TGI was over 100 µM.

And the TGI (HL-60(TB) leukemia)?
The TGI was 30.4 µM.

And the TGI (OVCAR-5 ovarian)?
The TGI was over 100 µM.

What about the TGI (M14 melanoma) of the same compound?
The TGI was over 100 µM.

And the TGI (LOX IMVI melanoma)?
Its TGI is over 100 µM.

What about the TGI (MCF7 breast) of the same compound?
The TGI was over 100 µM.

And the TGI (UACC-257 melanoma)?
Its TGI is over 100 µM.

What about the TGI (SF-295 CNS) of the same compound?
Its TGI is over 100 µM.

And the TGI (HS 578T breast)?
The TGI was over 100 µM.

And the TGI (OVCAR-3 ovarian)?
Its TGI is over 100 µM.

What about the TGI (OVCAR-4 ovarian) of the same compound?
Its TGI is over 100 µM.

What about the TGI (IGROV1 ovarian) of the same compound?
The TGI was over 100 µM.
